Experimental data reported in patent US6737383B1, “Herbicidal oxadiazolidines” (priority 1999, dated 2004).

Experiments:
giant foxtail = experiment: Test B pre/postemergence giant foxtail; format: in vivo, Setaria faberii; conditions: for Giant foxtail plant response rating: scale of 0 to 10 where 0 is no effect and 10 is complete control
Procedure, shortened: (§1)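 Test chemicals in a non-phytotoxic solvent mixture with surfactant were sprayed preemergence onto planted seeds and postemergence onto plants 2 to 18 cm tall (1- to 4-leaf stage). After twelve to sixteen days in a greenhouse, injury was visually rated against untreated controls from 0 (no effect) to 10 (complete control).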

sugar beet = experiment: Test B pre/postemergence sugar beet; format: in vivo, Beta vulgaris; conditions: for Sugarbeets plant response rating: scale of 0 to 10 where 0 is no effect and 10 is complete control
Procedure, shortened: as §1

purple nutsedge = experiment: Test B pre/postemergence purple nutsedge; format: in vivo, Cyperus rotundus; conditions: for Nutsedge plant response rating: scale of 0 to 10 where 0 is no effect and 10 is complete control
Procedure, shortened: as §1

wheat = experiment: Test B pre/postemergence wheat; format: in vivo, Triticum aestivum; conditions: for Wheat plant response rating: scale of 0 to 10 where 0 is no effect and 10 is complete control
Procedure, shortened: as §1

wild oat = experiment: Test B pre/postemergence wild oat; format: in vivo, Avena fatua; conditions: for Wild oats plant response rating: scale of 0 to 10 where 0 is no effect and 10 is complete control
Procedure, shortened: as §1

duck salad = experiment: Test B flood test duck salad; format: in vivo, Heteranthera limosa
Procedure, shortened: (§2)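 Plants were grown to the 2-leaf stage before treatment with test chemical, then held in a greenhouse for twelve to sixteen days. Injury was visually rated against untreated controls on a 0–10 scale, where 0 is no effect and 10 is complete control.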

crabgrass = experiment: Test B pre/postemergence crabgrass; format: in vivo, Digitaria sanguinalis; conditions: for Crabgrass plant response rating: scale of 0 to 10 where 0 is no effect and 10 is complete control
Procedure, shortened: as §1

cocklebur = experiment: Test B pre/postemergence cocklebur; format: in vivo, Xanthium strumarium; conditions: for Cocklebur plant response rating: scale of 0 to 10 where 0 is no effect and 10 is complete control
Procedure, shortened: as §1

blackgrass = experiment: Test B pre/postemergence blackgrass; format: in vivo, Alopecurus myosuroides; conditions: for Blackgrass plant response rating: scale of 0 to 10 where 0 is no effect and 10 is complete control
Procedure, shortened: as §1

pigweed = experiment: Test B pre/postemergence pigweed; format: in vivo, Amaranthus retroflexus; conditions: for Redroot pigweed plant response rating: scale of 0 to 10 where 0 is no effect and 10 is complete control
Procedure, shortened: as §1

surinam grass = experiment: Test B pre/postemergence surinam grass; format: in vivo, Brachiaria decumbens; conditions: for B. signalgrass plant response rating: scale of 0 to 10 where 0 is no effect and 10 is complete control
Procedure, shortened: as §1

rice = experiment: Test B flood test rice; format: in vivo, Oryza sativa
Procedure, shortened: as §2

bamyardgrass = experiment: Test B flood test barnyardgrass; format: in vivo, Echinochloa crus-galli
Procedure, shortened: as §2

morningglory = experiment: Test B pre/postemergence morningglory; format: in vivo, Ipomoea hederacea; conditions: for Morningglory plant response rating: scale of 0 to 10 where 0 is no effect and 10 is complete control
Procedure, shortened: as §1

bedstraw = experiment: Test B pre/postemergence bedstraw; format: in vivo, Galium aparine
Procedure, shortened: as §1

velvetleaf = experiment: Test B pre/postemergence velvetleaf; format: in vivo, Abutilon theophrasti; conditions: for Velvetleaf plant response rating: scale of 0 to 10 where 0 is no effect and 10 is complete control
Procedure, shortened: as §1

[1] = Postemergence, Rate 125 g/ha, scale 0 to 10, 0 is no effect, 10 is complete control
[2] = Postemergence, Rate 250 g/ha, scale 0 to 10, 0 is no effect, 10 is complete control
[3] = Preemergence, Rate 62 g/ha, scale 0 to 10 (0 no effect, 10 complete control)
[4] = Rate 500 g/ha, Postemergence, scale 0 to 10, 0 no effect, 10 complete control
[5] = Rate 62 g/ha, flood test species, Pre-emergence, visual evaluation after twelve to sixteen days
[6] = Rate 125 g/ha, under heading Pre-emergence, flood test species, visual evaluation after twelve to sixteen days
[7] = Rate 250 g/ha, Pre-emergence, flood-test species, scale 0 to 10, 0 is no effect, 10 is complete control
[8] = Rate 500 g/ha, Pre-emergence, flood test species, scale 0 to 10 (0 no effect, 10 complete control)

CC(C)N(C(=O)n1oc(=O)n(N2CCOCC2)c1=O)c1ccc(F)cc1 [Compound 385] was tested, and the “Plant response rating, Giant foxtail” value (giant foxtail; [1]) was 9, the “Plant response rating, Giant foxtail” value (giant foxtail; [2]) was 9 and the “Plant response rating, Giant foxtail” value (giant foxtail; [3]) was 3. The “Giant foxtail plant response rating (0 to 10 scale)” value (giant foxtail; Preemergence, Rate 125 g/ha) was 10, the “Giant foxtail plant response rating” value (giant foxtail; Preemergence, Rate 250 g/ha) was 10 and the “Giant foxtail plant response rating” value (giant foxtail; Preemergence, Rate 500 g/ha) was 10. For the same molecule, the “Giant foxtail plant response rating” value (giant foxtail; Rate 62 g/ha, Postemergence) was 7, the “Plant response rating, Giant foxtail” value (giant foxtail; [4]) was 9 and the “Plant response rating, Sugarbeets” value (sugar beet; [1]) was 0. The “Plant response rating, Sugarbeets” value (sugar beet; [2]) was 0, the “Plant response rating, Sugarbeets” value (sugar beet; [3]) was 0 and the “Sugarbeets plant response rating (0 to 10 scale)” value (sugar beet; Preemergence, Rate 125 g/ha) was 1. The “Sugarbeets plant response rating” value (sugar beet; Preemergence, Rate 250 g/ha) was 2, the “Sugarbeets plant response rating” value (sugar beet; Preemergence, Rate 500 g/ha) was 7 and the “Sugarbeets plant response rating” value (sugar beet; Rate 62 g/ha, Postemergence) was 0. For the same molecule, the “Plant response rating, Sugarbeets” value (sugar beet; [4]) was 0, the “Plant response rating, Nutsedge” value (purple nutsedge; [1]) was 0 and the “Plant response rating, Nutsedge” value (purple nutsedge; [2]) was 0. For the same molecule, the “Plant response rating, Nutsedge” value (purple nutsedge; [3]) was 0, the “Nutsedge plant response rating (0 to 10 scale)” value (purple nutsedge; Preemergence, Rate 125 g/ha) was 0 and the “Nutsedge plant response rating” value (purple nutsedge; Preemergence, Rate 250 g/ha) was 0. For the same molecule, the “Nutsedge plant response rating” value (purple nutsedge; Preemergence, Rate 500 g/ha) was 0, the “Nutsedge plant response rating” value (purple nutsedge; Rate 62 g/ha, Postemergence) was 0 and the “Plant response rating, Nutsedge” value (purple nutsedge; [4]) was 0. For the same molecule, the “Plant response rating, Wheat” value (wheat; [1]) was 0, the “Plant response rating, Wheat” value (wheat; [2]) was 0 and the “Plant response rating, Wheat” value (wheat; [3]) was 0. The “Wheat plant response rating (0 to 10 scale)” value (wheat; Preemergence, Rate 125 g/ha) was 0, the “Wheat plant response rating” value (wheat; Preemergence, Rate 250 g/ha) was 3 and the “Wheat plant response rating” value (wheat; Preemergence, Rate 500 g/ha) was 8. The “Wheat plant response rating” value (wheat; Rate 62 g/ha, Postemergence) was 0, the “Plant response rating, Wheat” value (wheat; [4]) was 5 and the “Plant response rating, Wild oats” value (wild oat; [1]) was 0. The “Plant response rating, Wild oats” value (wild oat; [2]) was 2, the “Plant response rating, Wild oats” value (wild oat; [3]) was 0 and the “Wild oats plant response rating (0 to 10 scale)” value (wild oat; Preemergence, Rate 125 g/ha) was 2. For the same molecule, the “Wild oats plant response rating” value (wild oat; Preemergence, Rate 250 g/ha) was 7, the “Wild oats plant response rating” value (wild oat; Preemergence, Rate 500 g/ha) was 10 and the “Wild oats plant response rating” value (wild oat; Rate 62 g/ha, Postemergence) was 0. For the same molecule, the “Plant response rating, Wild oats” value (wild oat; [4]) was 3, the “Plant response rating, Ducksalad (0 to 10 scale, 0 is no effect, 10 is complete control)” value (duck salad; [5]) was 0 and the “Ducksalad plant response rating (0 to 10 scale, 0 is no effect, 10 is complete control)” value (duck salad; [6]) was 0. The “Ducksalad plant response rating” value (duck salad; [7]) was 0, the “Ducksalad plant response rating” value (duck salad; [8]) was 0 and the “Plant response rating, Crabgrass” value (crabgrass; [1]) was 7. For the same molecule, the “Plant response rating, Crabgrass” value (crabgrass; [2]) was 9, the “Plant response rating, Crabgrass” value (crabgrass; [3]) was 3 and the “Crabgrass plant response rating (0 to 10 scale)” value (crabgrass; Preemergence, Rate 125 g/ha) was 9. The “Crabgrass plant response rating” value (crabgrass; Preemergence, Rate 250 g/ha) was 9, the “Crabgrass plant response rating” value (crabgrass; Preemergence, Rate 500 g/ha) was 10 and the “Crabgrass plant response rating” value (crabgrass; Rate 62 g/ha, Postemergence) was 6. The “Plant response rating, Crabgrass” value (crabgrass; [4]) was 9, the “Plant response rating, Cocklebur” value (cocklebur; [1]) was 0 and the “Plant response rating, Cocklebur” value (cocklebur; [2]) was 0. The “Plant response rating, Cocklebur” value (cocklebur; [3]) was 0, the “Cocklebur plant response rating (0 to 10 scale)” value (cocklebur; Preemergence, Rate 125 g/ha) was 0 and the “Cocklebur plant response rating” value (cocklebur; Preemergence, Rate 250 g/ha) was 0. For the same molecule, the “Cocklebur plant response rating” value (cocklebur; Preemergence, Rate 500 g/ha) was 0, the “Cocklebur plant response rating” value (cocklebur; Rate 62 g/ha, Postemergence) was 0 and the “Plant response rating, Cocklebur” value (cocklebur; [4]) was 0. For the same molecule, the “Plant response rating, Blackgrass” value (blackgrass; [1]) was 0, the “Plant response rating, Blackgrass” value (blackgrass; [2]) was 2 and the “Plant response rating, Blackgrass” value (blackgrass; [3]) was 0. For the same molecule, the “Blackgrass plant response rating (0 to 10 scale)” value (blackgrass; Preemergence, Rate 125 g/ha) was 0, the “Blackgrass plant response rating” value (blackgrass; Preemergence, Rate 250 g/ha) was 6 and the “Blackgrass plant response rating” value (blackgrass; Preemergence, Rate 500 g/ha) was 10. The “Blackgrass plant response rating” value (blackgrass; Rate 62 g/ha, Postemergence) was 0, the “Plant response rating, Blackgrass” value (blackgrass; [4]) was 8 and the “Plant response rating, Redroot pigweed” value (pigweed; [1]) was 0. The “Plant response rating, Redroot pigweed” value (pigweed; [2]) was 0, the “Plant response rating, Redroot pigweed” value (pigweed; [3]) was 2 and the “Redroot pigweed plant response rating (0 to 10 scale)” value (pigweed; Preemergence, Rate 125 g/ha) was 7. The “Redroot pigweed plant response rating” value (pigweed; Preemergence, Rate 250 g/ha) was 7, the “Redroot pigweed plant response rating” value (pigweed; Preemergence, Rate 500 g/ha) was 10 and the “Redroot pigweed plant response rating” value (pigweed; Rate 62 g/ha, Postemergence) was 0. The “Plant response rating, Redroot pigweed” value (pigweed; [4]) was 0, the “Plant response rating, B. signalgrass” value (surinam grass; [1]) was 3 and the “Plant response rating, B. signalgrass” value (surinam grass; [2]) was 6. For the same molecule, the “Plant response rating, B. signalgrass” value (surinam grass; [3]) was 0, the “B. signalgrass plant response rating (0 to 10 scale, 0 is no effect, 10 is complete control)” value (surinam grass; Preemergence, Rate 125 g/ha) was 0 and the “B. signalgrass plant response rating” value (surinam grass; Preemergence, Rate 250 g/ha) was 7. For the same molecule, the “B. signalgrass plant response rating” value (surinam grass; Preemergence, Rate 500 g/ha) was 9, the “B. signalgrass plant response rating” value (surinam grass; Rate 62 g/ha, Postemergence) was 0 and the “Plant response rating, B. signalgrass” value (surinam grass; [4]) was 8. The “Plant response rating, Rice (0 to 10 scale, 0 is no effect, 10 is complete control)” value (rice; [5]) was 0, the “Rice plant response rating (0 to 10 scale, 0 is no effect, 10 is complete control)” value (rice; [6]) was 0 and the “Rice plant response rating” value (rice; [7]) was 0. The “Rice plant response rating” value (rice; [8]) was 0, the “Plant response rating, Barnyardgrass (0 to 10 scale, 0 is no effect, 10 is complete control)” value (bamyardgrass; [5]) was 0 and the “Barnyardgrass plant response rating (0 to 10 scale, 0 is no effect, 10 is complete control)” value (bamyardgrass; [6]) was 0. For the same molecule, the “Barnyardgrass plant response rating” value (bamyardgrass; [7]) was 0, the “Barnyardgrass plant response rating” value (bamyardgrass; [8]) was 0 and the “Plant response rating, Morningglory” value (morningglory; [1]) was 1. For the same molecule, the “Plant response rating, Morningglory” value (morningglory; [2]) was 2, the “Plant response rating, Morningglory” value (morningglory; [3]) was 0 and the “Morningglory plant response rating (0 to 10 scale)” value (morningglory; Preemergence, Rate 125 g/ha) was 0. For the same molecule, the “Morningglory plant response rating” value (morningglory; Preemergence, Rate 250 g/ha) was 0, the “Morningglory plant response rating” value (morningglory; Preemergence, Rate 500 g/ha) was 2 and the “Morningglory plant response rating” value (morningglory; Rate 62 g/ha, Postemergence) was 1. The “Plant response rating, Morningglory” value (morningglory; [4]) was 5, the “Plant response rating, Bedstraw” value (bedstraw; [2]) was 0 and the “Plant response rating, Bedstraw” value (bedstraw; [3]) was 0. The “Plant response rating, Bedstraw” value (bedstraw; [4]) was 3, the “Plant response rating, Velvetleaf” value (velvetleaf; [1]) was 0 and the “Plant response rating, Velvetleaf” value (velvetleaf; [2]) was 0. For the same molecule, the “Plant response rating, Velvetleaf” value (velvetleaf; [3]) was 0, the “Velvetleaf plant response rating (0 to 10 scale)” value (velvetleaf; Preemergence, Rate 125 g/ha) was 0 and the “Velvetleaf plant response rating” value (velvetleaf; Preemergence, Rate 250 g/ha) was 3. For the same molecule, the “Velvetleaf plant response rating” value (velvetleaf; Preemergence, Rate 500 g/ha) was 3, the “Velvetleaf plant response rating” value (velvetleaf; Rate 62 g/ha, Postemergence) was 0 and the “Plant response rating, Velvetleaf” value (velvetleaf; [4]) was 0.
